Laboratory results: ChEMBL document CHEMBL1201862, “PubChem BioAssay data set” (2004)
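48-hour exposure; five concentrations; linearly interpolated endpoints. GI50 marks 50% less growth.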 Activity calls are given as the source filed them. No stated cut-off is given here; in the data, active = GI50 up to about 1.1 µM and inactive = higher. Non-standard residues stand in square brackets, D forms with d. Residues, ends and D or L forms follow the SMILES beside them. β3hI = CC[CH](C)[CH](N)CC(=O)O

What was measured:
Assay in all cases: growth of human tumour cells (NCI), 48 h
786-0 = test system: 786-0
A549 = test system: A549
ACHN = test system: ACHN
BT-549 = test system: BT-549
CAKI-1 = test system: CAKI-1
CCRF-CEM = test system: CCRF-CEM
COLO 205 = test system: COLO 205
DU-145 = test system: DU-145
EKVX = test system: EKVX
HCC 2998 = test system: HCC 2998
HCT-116 = test system: HCT-116
HCT-15 = test system: HCT-15
HL-60 = test system: HL-60
HOP-62 = test system: HOP-62
HOP-92 = test system: HOP-92
HT-29 = test system: HT-29
Hs-578T = test system: Hs-578T
IGROV-1 = test system: IGROV-1
K562 = test system: K562
KM12 = test system: KM12
LOX IMVI = test system: LOX IMVI
M14 = test system: M14
MCF7 = test system: MCF7
MDA-MB-231 = test system: MDA-MB-231
MDA-MB-435 = test system: MDA-MB-435
MDA-N = test system: MDA-N
MOLT-4 = test system: MOLT-4
Malme-3M = test system: Malme-3M
NCI-H226 = test system: NCI-H226
NCI-H23 = test system: NCI-H23
NCI-H460 = test system: NCI-H460
NCI-H522 = test system: NCI-H522
NCI/ADR-RES = test system: NCI/ADR-RES
OVCAR-4 = test system: OVCAR-4
OVCAR-8 = test system: OVCAR-8
PC-3 = test system: PC-3
RPMI-8226 = test system: RPMI-8226
RXF 393 = test system: RXF 393
SF-268 = test system: SF-268
SF-295 = test system: SF-295
SF-539 = test system: SF-539
SK-MEL-28 = test system: SK-MEL-28
SK-MEL-5 = test system: SK-MEL-5
SK-OV-3 = test system: SK-OV-3
SN12C = test system: SN12C
SNB-19 = test system: SNB-19
SNB-75 = test system: SNB-75
SR = test system: SR
SW-620 = test system: SW-620
T47D = test system: T47D
TK-10 = test system: TK-10
UACC-257 = test system: UACC-257
UACC-62 = test system: UACC-62
UO-31 = test system: UO-31
A498 = test system: A498
OVCAR-3 = test system: OVCAR-3
OVCAR-5 = test system: OVCAR-5
SK-MEL-2 = test system: SK-MEL-2
U-251 = test system: U-251

Measured: GI50

O=C1NC(S(=O)(=O)O)=NNC12c1ccccc1-c1ccccc12
inactive: 786-0 > 10 µM | A549 > 10 µM | ACHN > 10 µM | BT-549 > 10 µM | CAKI-1 > 10 µM | CCRF-CEM > 10 µM | COLO 205 > 10 µM | DU-145 > 10 µM | EKVX > 10 µM | HCC 2998 > 10 µM | HCT-116 > 10 µM | HL-60 > 10 µM | HOP-62 > 10 µM | HOP-92 > 10 µM | HT-29 > 10 µM | Hs-578T > 10 µM | IGROV-1 > 10 µM | K562 > 10 µM | KM12 > 10 µM | LOX IMVI > 10 µM | M14 > 10 µM | MCF7 > 10 µM | MDA-MB-231 > 10 µM | MDA-MB-435 > 10 µM | MDA-N > 10 µM | MOLT-4 > 10 µM | Malme-3M > 10 µM | NCI-H226 > 10 µM | NCI-H23 > 10 µM | NCI-H460 > 10 µM | NCI-H522 > 10 µM | NCI/ADR-RES > 10 µM | OVCAR-4 > 10 µM | OVCAR-8 > 10 µM | PC-3 > 10 µM | RPMI-8226 > 10 µM | RXF 393 > 10 µM | SF-268 > 10 µM | SF-295 > 10 µM | SF-539 > 10 µM | SK-MEL-28 > 10 µM | SK-MEL-5 > 10 µM | SK-OV-3 > 10 µM | SN12C > 10 µM | SNB-19 > 10 µM | SNB-75 > 10 µM | SR > 10 µM | SW-620 > 10 µM | T47D 4.16 µM | TK-10 > 10 µM | UACC-257 > 10 µM | UACC-62 > 10 µM | UO-31 > 10 µM
> 10 µM: HCT-15

N#Cc1ccc(CSC2=C(c3ccc(Cl)cc3)S/C(=C3\SC(SCc4ccc(C#N)cc4)=C(c4ccc(Cl)cc4)S3)S2)cc1
inactive: 786-0 > 100 µM | A498 > 100 µM | A549 > 100 µM | ACHN > 100 µM | BT-549 > 100 µM | CAKI-1 > 100 µM | CCRF-CEM > 100 µM | COLO 205 > 100 µM | DU-145 > 100 µM | EKVX > 100 µM | HCC 2998 > 100 µM | HCT-116 > 100 µM | HL-60 > 100 µM | HOP-62 > 100 µM | HT-29 > 100 µM | Hs-578T > 100 µM | IGROV-1 > 100 µM | K562 > 100 µM | KM12 > 100 µM | LOX IMVI > 100 µM | M14 > 100 µM | MCF7 > 100 µM | MDA-MB-231 > 100 µM | MDA-MB-435 > 100 µM | MDA-N > 100 µM | MOLT-4 > 100 µM | Malme-3M > 100 µM | NCI-H226 > 100 µM | NCI-H23 > 100 µM | NCI-H460 > 100 µM | NCI-H522 > 100 µM | NCI/ADR-RES > 100 µM | OVCAR-3 > 100 µM | OVCAR-4 > 100 µM | OVCAR-5 > 100 µM | OVCAR-8 > 100 µM | PC-3 > 100 µM | RPMI-8226 > 100 µM | RXF 393 > 100 µM | SF-268 > 100 µM | SF-295 > 100 µM | SF-539 > 100 µM | SK-MEL-28 > 100 µM | SK-MEL-2 > 100 µM | SK-MEL-5 > 100 µM | SK-OV-3 > 100 µM | SN12C > 100 µM | SNB-19 > 100 µM | SR > 100 µM | SW-620 > 100 µM | T47D > 100 µM | TK-10 > 100 µM | U-251 > 100 µM | UACC-257 > 100 µM | UACC-62 > 100 µM
> 100 µM: HCT-15

CCC(C)C(CC(=O)N1CCCC1C(=O)NC(C(=O)NC(C(=O)NCC(=O)NC(CC(N)=O)C(=O)NC(C(=O)NC(C(=O)NC(CCCCN)C(N)=O)C(C)CC)C(C)CC)C(C)C)C(C)CC)NC(=O)C(N)C(C)CC (stereo not drawn) (H-I[β3hI]PIVGNIIK-NH2; configuration not given here)
inactive: 786-0 > 50 µM | A498 > 50 µM | A549 > 50 µM | ACHN > 50 µM | BT-549 > 50 µM | CAKI-1 > 50 µM | CCRF-CEM 10.5 µM | COLO 205 > 50 µM | DU-145 > 50 µM | EKVX > 50 µM | HCT-116 > 50 µM | HL-60 > 50 µM | HOP-62 > 50 µM | HOP-92 > 50 µM | HT-29 > 50 µM | Hs-578T > 50 µM | IGROV-1 > 50 µM | KM12 > 50 µM | LOX IMVI > 50 µM | M14 > 50 µM | MCF7 > 50 µM | MDA-MB-231 > 50 µM | MDA-MB-435 > 50 µM | MDA-N > 50 µM | MOLT-4 > 50 µM | Malme-3M > 50 µM | NCI-H226 > 50 µM | NCI-H23 > 50 µM | NCI-H522 > 50 µM | NCI/ADR-RES > 50 µM | OVCAR-3 > 50 µM | OVCAR-4 > 50 µM | OVCAR-5 > 50 µM | OVCAR-8 > 50 µM | PC-3 > 50 µM | RPMI-8226 > 50 µM | SF-268 > 50 µM | SF-295 > 50 µM | SF-539 > 50 µM | SK-MEL-28 > 50 µM | SK-MEL-2 > 50 µM | SK-MEL-5 > 50 µM | SK-OV-3 > 50 µM | SN12C > 50 µM | SNB-19 > 50 µM | SR > 50 µM | SW-620 > 50 µM | T47D > 50 µM | TK-10 > 50 µM | U-251 > 50 µM | UACC-257 > 50 µM | UACC-62 > 50 µM | UO-31 > 50 µM
> 50 µM: HCT-15
